Literature values, collected in publication PMC7395068, “The evolution of strategies to minimise the risk of human drug-induced liver injury (DILI) in drug discovery and development” (Archives of Toxicology, 2020).
Like-named read-outs stand apart in the source and are kept apart here.

How the values were obtained:
human hepatocytes = conditions: cited from earlier work
hLiMTs = conditions: cited from earlier work
[1] = cited from earlier work
[2] = system: HepG2 C3A spheroid, BSEP, Glu/Gal in HepG2 cells, bioactivation; conditions: cited from earlier work
RMPCC's = conditions: cited from earlier work
[3] = cited from earlier work; remark: listed apart in the source
[4] = system: THLE-Null and THLE-3A4 cells; conditions: In vitro Assay; ref Gustafsson 2014; cited from earlier work
PHH = conditions: cited from earlier work
hu-MPCC = conditions: cited from earlier work
[5] = system: THLE or HepG2 cells, isolated mitochondria, BSEP; conditions: cited from earlier work
HepG2 cells [6] = conditions: cited from earlier work
HepG2 cells [7] = conditions: cited from earlier work; remark: listed apart in the source
PHH spheroids = conditions: In vitro Assay; ref Vorrink 2018; cited from earlier work
[8] = ref Chen 2011; cited from earlier work
HepG2 cells [9] = conditions: cited from earlier work; remark: listed apart in the source
[10] = system: HepG2 cells, primary human hepatocytes; conditions: cited from earlier work
[11] = system: primary human hepatocytes, NIH3T3 fibroblasts, BSEP, CYP3A4; conditions: In vitro Assay; ref Schadt 2015; cited from earlier work
[12] = system: isolated mouse liver mitochondria; conditions: In vitro Assay; ref Porceddu 2012; cited from earlier work
[13] = In vitro Assay, ref Proctor 2017
[14] = In vitro Assay, ref Williams 2019
[15] = In vitro Assay, ref Khetani 2012
[16] = In vitro Assay, ref Garside 2014
[17] = In vitro Assay, ref Persson 2013
[18] = In vitro Assay, ref O'Brien 2006

Compound	Structural based (HCI) (human hepatocytes; In vitro Assay, ref Xu 2008)	In vivo DILI ([1]; […])	In vivo DILI ([1]; ref Aleo 2019)	In vivo DILI ([1]; ref Khetani 2012)	In vivo DILI ([1]; ref Proctor 2017)	In vivo DILI ([1]; ref Xu 2008)	RMPCC's (RMPCC's; [15])	DILI +VE (5-8), DILI -VE (-4) ([3]; ref Chen 2016)	DILI severity category ([3]; ref Chen 2016)	HMPCC's (hu-MPCC; [15])	Partition Hybrid HRM Score ([5]; In vitro Assay, ref Aleo 2019)	Ro2 Hybrid HRM Score ([5]; In vitro Assay, ref Aleo 2019)	hLiMTs ATP <20 x Cmax (PHH spheroids)	In vivo DILI ([1]; ref Garside 2014)	In vivo DILI ([1]; ref Schadt 2015)	In vivo DILI ([1]; ref Vorrink 2018)	DILI Score (FDA) (1-8) [8]	In vivo DILI ([1]; ref Porceddu 2012)	in vitro data EC2<=1x Cmax [12]	in vitro data EC20<=2uM [12]	other results
CCc1oc2ccccc2c1C(=O)c1cc(Br)c(O)c(Br)c1 [benzbromarone]	+VE	+VE	+VE	+VE	+VE	+VE	+VE	+VE	vMost-DILI-Concern	+VE	+VE	+VE									hLiMTs ATP <100uM (hLiMTs; [13]): +VE (IC50 threshold of 100 µM); In vivo DILI ([1]; ref Gustafsson 2014): +VE; In vivo DILI ([1]; ref Williams 2019): +VE; Bayesian Machine Learning [2, 14]: +VE; THLE-Null [4]: +VE; THLE-Null/3A4 [4]: +VE; PHH ATP <100uM (PHH; [13]): +VE (IC50 threshold of 100 µM)
C[C@H](CS)C(=O)N1CCC[C@H]1C(=O)O [captopril]																					Structural based (HCI) (human hepatocytes): -VE; In vivo DILI ([1]; in vivo): +VE; Bayesian Machine Learning [2]: +VE; RMPCC's (RMPCC's): -VE; DILI +VE (5-8), DILI -VE (-4) ([3]; in vivo): +VE; DILI severity category ([3]; in vivo): vLess-DILI-Concern; Structural based (HCI) (HepG2 cells [6]): +VE; HMPCC's (hu-MPCC): -VE; Structural based (HCI) (HepG2 cells [7]): +VE; Ro2 Hybrid HRM Score [5]: -VE
CNCCC(Oc1ccc(C(F)(F)F)cc1)c1ccccc1 (centres unmarked) [fluoxetine]		-VE	+VE	-VE	+VE	-VE		+VE	vLess-DILI-Concern				-VE	+VE	-VE	-VE	3				Structural based (HCI) (human hepatocytes): -VE; hLiMTs ATP <100uM (hLiMTs): +VE (key: +VE: IC50 threshold of 100 µM); In vivo DILI ([1]; ref Persson 2013): +VE; In vivo DILI ([1]; ref Tolosa 2012): +VE; In vivo DILI ([1]; ref Williams 2019): +VE; Bayesian Machine Learning [2]: +VE; RMPCC's (RMPCC's): -VE; Cluser analysis (HepG2 cells [9]): +VE; PHH ATP <100uM (PHH): -VE; HMPCC's (hu-MPCC): -VE; Cluster 1-6 +VE Assay [10]: +VE; Cellular toxicity (3T3 cells) [11]: +VE; Combined Assay [11]: -VE; GSH adduct HML [11]: -VE; Hepatocyte cellular toxicity [11]: -VE; MitoTox 3T3 [11]: -VE; TDI CYP3A4 [11]: -VE; hBSEP inhibition [11]: -VE
CC(C(=O)O)c1ccc(-c2ccccc2)c(F)c1 (centres unmarked) [flurbiprofen]	+VE			+VE		+VE	+VE	-VE	Ambiguous DILI-concern	+VE	+VE	+VE		+VE	-VE		3				In vivo DILI ([1]; ref Gustafsson 2014): +VE; THLE-Null [4]: -VE; THLE-Null/3A4 [4]: -VE; Cluster 1-6 +VE Assay [10, 16]: -VE; Cellular toxicity (3T3 cells) [11]: -VE; Combined Assay [11]: -VE; GSH adduct HML [11]: -VE; Hepatocyte cellular toxicity [11]: -VE; MitoTox 3T3 [11]: -VE; TDI CYP3A4 [11]: -VE; hBSEP inhibition [11]: -VE
CN(C)CCCN1c2ccccc2CCc2ccccc21 [imipramine]		+VE	+VE	+VE	+VE	+VE	-VE	+VE	vLess-DILI-Concern	+VE		+VE	+VE (IC20 < 20 × Cmax.tot cut-off)	+VE	-VE	+VE		+VE	-VE	+VE	hLiMTs ATP <100uM (hLiMTs; [13]): +VE (IC50 threshold of 100 µM); In vivo DILI ([1]; ref O'Brien 2006): +VE; In vivo DILI ([1]; ref Persson 2013): +VE; In vivo DILI ([1]; ref Tolosa 2012): +VE; In vivo DILI ([1]; ref Williams 2019): +VE; Bayesian Machine Learning [2, 14]: +VE; Structural based (HCI) (HepG2 cells [9]; [17]): +VE; Structural based (HCI) (HepG2 cells [6]; In vitro Assay, ref Tolosa 2012): +VE; PHH ATP <100uM (PHH; [13]): +VE (IC50 threshold of 100 µM); Structural based (HCI) (HepG2 cells [7]; [18]): +VE
Cc1cccc(Nc2ccccc2C(=O)O)c1C [mefenamic acid]	+VE	+VE		+VE	-VE	+VE	+VE	+VE	vMost-DILI-Concern	+VE			+VE (IC20 < 20 × Cmax.tot cut-off)			+VE		+VE	+VE	+VE	hLiMTs ATP <100uM (hLiMTs; [13]): +VE (IC50 threshold of 100 µM); PHH ATP <100uM (PHH; [13]): +VE (IC50 threshold of 100 µM)
CNCCC=C1c2ccccc2CCc2ccccc21 [nortriptyline]	-VE		+VE	+VE		+VE	+VE	+VE	vMost-DILI-Concern	+VE	+VE	+VE	+VE (IC20 < 20 × Cmax.tot cut-off)			+VE	8				
CN1C(C(=O)Nc2ccccn2)=C(O)c2ccccc2S1(=O)=O [piroxicam]	-VE	+VE	+VE	+VE		+VE	+VE	+VE	vLess-DILI-Concern	-VE	-VE	+VE	-VE		-VE	+VE	3	+VE	+VE	+VE	In vivo DILI ([1]; ref O'Brien 2006): +VE; In vivo DILI ([1]; ref Persson 2013): +VE; Cluser analysis (HepG2 cells [9]; [17]): -VE; Structural based (HCI) (HepG2 cells [9]; [17]): -VE; Structural based (HCI) (HepG2 cells [7]; [18]): +VE; Cellular toxicity (3T3 cells) [11]: -VE; Combined Assay [11]: -VE; GSH adduct HML [11]: -VE; Hepatocyte cellular toxicity [11]: -VE; MitoTox 3T3 [11]: -VE; TDI CYP3A4 [11]: -VE; hBSEP inhibition [11]: -VE
NC(=O)c1cnccn1 [pyrazinamide]	-VE	+VE	+VE	+VE		+VE	-VE	+VE	vLess-DILI-Concern	+VE	+VE	-VE		+VE			3	+VE	+VE	+VE	In vivo DILI ([1]; ref O'Brien 2006): +VE; Cluster 1-6 +VE Assay [10, 16]: -VE; Structural based (HCI) (HepG2 cells [7]; [18]): +VE
O=c1n(CCCN2CCN(c3cccc(Cl)c3)CC2)nc2ccccn12 [trazodone]	+VE		+VE	+VE		+VE	+VE	+VE	vLess-DILI-Concern	+VE	+VE	+VE	+VE (IC20 < 20 × Cmax.tot cut-off)			+VE	5				
